The source made the active and inactive calls. The calls are words filed in the database; no cut-off is given here.
Experiments:
[1] = Cytotoxicity against human KBV cells assessed as decrease in cell survival rate at 10 uM measured after 72 hrs in presence of paclitaxel by MTT assay; format: functional; conditions: read-out: Survival
[2] = Cytotoxicity against human KBV cells assessed as decrease in cell survival rate at 10 uM measured after 72 hrs by MTT assay; format: functional; conditions: read-out: Survival
[3] = target: ATP-dependent translocase ABCB1 (Homo sapiens, UniProt P08183); assay: Inhibition of P-glycoprotein mediated Rhodamine-123 efflux in human KBV cells assessed as increase in rhodamine-123 accumulation incubated for 3 hrs in presence of rhodamine-123 by flow cytometry analysis; format: cell-based; conditions: DDE = dose-dependent effect
[4] = Toxicity in BALB/c mouse xenografted with human KBV cells assessed as change in body weight at 10 mg/kg, ip qd administered presence of paclitaxel; format: organism-based; conditions: in vivo
KBV [5] = assay: Induction of cell cycle arrest in human KBV cells assessed as accumulation at G2/M phase measured after 24 hrs by propidium iodide/RNase staining based flow cytometry analysis; format: functional
[6] = Antitumor activity against human KBV cells xenografted in BALB/c mouse assessed as tumor suppression rate at 10 mg/kg, ip qd administered in presence of paclitaxel; format: functional
[7] = Induction of cell cycle arrest in human KBV cells assessed as accumulation at sub-G0 phase measured after 24 hrs by propidium iodide/RNase staining based flow cytometry analysis (reference value: 6.18%); format: functional
KBV [8] = assay: Induction of apoptosis in human KBV cells at 10 uM measured after 24 hrs in presence of paclitaxel by flow cytometry analysis; format: functional, cell-based
[9] = Cytotoxicity against human KBV cells assessed as decrease in cell survival rate at 100 nM measured after 72 hrs by MTT assay; format: functional; conditions: read-out: Survival
[10] = Antitumor activity against human KBV cells xenografted in BALB/c mouse assessed as tumor suppression rate at 30 mg/kg administered once every three days; format: functional

Chain of ATP-dependent translocase ABCB1 (P08183 whole entry): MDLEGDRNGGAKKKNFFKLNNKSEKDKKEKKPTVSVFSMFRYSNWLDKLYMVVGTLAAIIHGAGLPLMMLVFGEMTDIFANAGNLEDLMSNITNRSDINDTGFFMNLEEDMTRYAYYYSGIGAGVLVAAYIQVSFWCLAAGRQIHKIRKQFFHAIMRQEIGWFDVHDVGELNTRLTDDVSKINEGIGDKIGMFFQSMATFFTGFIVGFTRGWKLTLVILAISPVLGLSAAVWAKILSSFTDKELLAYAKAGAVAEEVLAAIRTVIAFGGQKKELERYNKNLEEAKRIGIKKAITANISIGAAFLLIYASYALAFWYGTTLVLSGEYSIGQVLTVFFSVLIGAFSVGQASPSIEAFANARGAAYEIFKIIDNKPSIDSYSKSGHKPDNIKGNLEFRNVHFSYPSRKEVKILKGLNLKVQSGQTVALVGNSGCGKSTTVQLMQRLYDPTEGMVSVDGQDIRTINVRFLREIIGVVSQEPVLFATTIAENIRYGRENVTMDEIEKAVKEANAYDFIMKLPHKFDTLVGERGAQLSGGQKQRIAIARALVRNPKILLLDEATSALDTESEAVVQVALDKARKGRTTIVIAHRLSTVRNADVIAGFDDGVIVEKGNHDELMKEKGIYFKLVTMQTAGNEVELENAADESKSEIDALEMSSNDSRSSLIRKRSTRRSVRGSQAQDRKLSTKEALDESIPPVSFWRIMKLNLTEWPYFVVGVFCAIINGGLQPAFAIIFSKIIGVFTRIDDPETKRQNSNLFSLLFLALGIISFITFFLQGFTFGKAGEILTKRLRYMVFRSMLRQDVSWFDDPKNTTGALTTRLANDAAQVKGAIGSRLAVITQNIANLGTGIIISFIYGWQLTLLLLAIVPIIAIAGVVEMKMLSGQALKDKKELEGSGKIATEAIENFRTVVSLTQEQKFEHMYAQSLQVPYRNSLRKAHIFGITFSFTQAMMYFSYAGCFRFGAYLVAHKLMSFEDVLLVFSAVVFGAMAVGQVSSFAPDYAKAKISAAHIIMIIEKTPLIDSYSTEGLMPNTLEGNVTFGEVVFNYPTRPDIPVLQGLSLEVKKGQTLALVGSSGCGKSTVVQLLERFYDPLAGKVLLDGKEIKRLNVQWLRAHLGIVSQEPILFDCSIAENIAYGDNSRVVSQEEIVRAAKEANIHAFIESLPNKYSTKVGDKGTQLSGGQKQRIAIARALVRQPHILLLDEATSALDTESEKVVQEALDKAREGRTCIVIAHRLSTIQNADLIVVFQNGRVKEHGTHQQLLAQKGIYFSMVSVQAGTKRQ

| Compound | viability at 10 µM [1] [%] | viability at 10 µM [2] [%] | other results |
| --- | --- | --- | --- |
| CC1(C)CC[C@]2(C(=O)OCc3cccc(F)c3)CC[C@]3(C)C(=CC[C@@H]4[C@@]5(C)Cc6nccnc6[C@@](C)(CO)[C@@H]5CC[C@]43C)[C@@H]2C1 | 35 | 110 |  |
| CC1(C)CC[C@]2(C(=O)OCc3ccc([N+](=O)[O-])cc3)CC[C@]3(C)C(=CC[C@@H]4[C@@]5(C)Cc6nccnc6[C@@](C)(CO)[C@@H]5CC[C@]43C)[C@@H]2C1 | 29.6 | 91.9 |  |
| CC1(C)CC[C@]2(C(=O)OCc3ccccc3)CC[C@]3(C)C(=CC[C@@H]4[C@@]5(C)Cc6cnoc6[C@@](C)(COC(=O)CCC(=O)O)[C@@H]5CC[C@]43C)[C@@H]2C1 | 16.6 | 34 |  |
| Cc1cccc(COC(=O)[C@]23CCC(C)(C)C[C@H]2C2=CC[C@@H]4[C@@]5(C)Cc6nccnc6[C@@](C)(CO)[C@@H]5CC[C@@]4(C)[C@]2(C)CC3)c1 | 32.8 | 124 |  |
| CC1(C)CC[C@]2(C(=O)OCc3ccccc3)CC[C@]3(C)C(=CC[C@@H]4[C@@]5(C)Cc6cnoc6[C@@](C)(COC(=O)CCC(=O)N6CCCC6)[C@@H]5CC[C@]43C)[C@@H]2C1 | 33.3 | 99.4 |  |
| CCN1CCN(C(=O)CCC(=O)OC[C@]2(C)c3oncc3C[C@@]3(C)[C@H]2CC[C@]2(C)[C@@H]3CC=C3[C@@H]4CC(C)(C)CC[C@]4(C(=O)OCc4ccccc4)CC[C@]32C)CC1 | 26.5 | 67.5 | inhibition (INH) [3]: Dde; Activity [4]: Non-Toxic; Activity (KBV [5]): Active; Activity [6]: 56.24%; Activity [7]: 14.8%; Activity (KBV [8]): Active |
| CC1(C)CC[C@]2(C(=O)O)CC[C@]3(C)C(=CC[C@@H]4[C@@]5(C)CC[C@H](O)[C@@](C)(CO)[C@@H]5CC[C@]43C)[C@@H]2C1 [HEDERAGENIN] | 149 |  |  |
| CC(=O)O[C@H]1C(=O)[C@@]2(C)[C@H]([C@H](OC(=O)c3ccccc3)[C@]3(O)C[C@H](OC(=O)[C@H](O)[C@@H](NC(=O)c4ccccc4)c4ccccc4)C(C)=C1C3(C)C)[C@]1(OC(C)=O)CO[C@@H]1C[C@@H]2O [PACLITAXEL] |  |  | viability at 0.1 µM [9]: 98.7%; Activity [10]: 22.63% |
| CC1(C)CC[C@]2(C(=O)OCc3ccccc3)CC[C@]3(C)C(=CC[C@@H]4[C@@]5(C)Cc6cnoc6[C@@](C)(COC(=O)CCC(=O)N6CCCCC6)[C@@H]5CC[C@]43C)[C@@H]2C1 | 79.2 | 80.5 |  |
| CC1(C)CC[C@]2(C(=O)OCc3ccccc3)CC[C@]3(C)C(=CC[C@@H]4[C@@]5(C)Cc6nccnc6[C@@](C)(CO)[C@@H]5CC[C@]43C)[C@@H]2C1 | 25.3 |  |  |
| Cc1ccccc1COC(=O)[C@]12CCC(C)(C)C[C@H]1C1=CC[C@@H]3[C@@]4(C)Cc5nccnc5[C@@](C)(CO)[C@@H]4CC[C@@]3(C)[C@]1(C)CC2 | 27.5 | 99.7 |  |
| CC1(C)CC[C@]2(C(=O)OCc3ccccc3)CC[C@]3(C)C(=CC[C@@H]4[C@@]5(C)Cc6cnoc6[C@@](C)(COC(=O)CCC(=O)n6ccnc6)[C@@H]5CC[C@]43C)[C@@H]2C1 | 48.6 | 96.9 |  |
| CC1(C)CC[C@]2(C(=O)OCc3ccc(F)cc3)CC[C@]3(C)C(=CC[C@@H]4[C@@]5(C)Cc6nccnc6[C@@](C)(CO)[C@@H]5CC[C@]43C)[C@@H]2C1 | 83.3 | 94.9 |  |
| CC1(C)CC[C@]2(C(=O)OCc3ccccc3)CC[C@]3(C)C(=CC[C@@H]4[C@@]5(C)Cc6cnoc6[C@@](C)(CO)[C@@H]5CC[C@]43C)[C@@H]2C1 | 33.7 | 140 |  |
| CCOC(=O)c1noc2c1C[C@@]1(C)[C@@H](CC[C@]3(C)[C@@H]1CC=C1[C@@H]4CC(C)(C)CC[C@]4(C(=O)O)CC[C@]13C)[C@]2(C)CO | 92.1 | 93.9 |  |
| CC1(C)CC[C@]2(C(=O)OCc3cccc(Cl)c3)CC[C@]3(C)C(=CC[C@@H]4[C@@]5(C)Cc6nccnc6[C@@](C)(CO)[C@@H]5CC[C@]43C)[C@@H]2C1 | 30.8 | 92 |  |
| CC1(C)CC[C@]2(C(=O)OCc3ccccc3)CC[C@]3(C)C(=CC[C@@H]4[C@@]5(C)Cc6cnoc6[C@@](C)(COC(=O)CCC(=O)N6CCOCC6)[C@@H]5CC[C@]43C)[C@@H]2C1 | 34.1 | 89.6 |  |
| CC1(C)CC[C@]2(C(=O)OCc3ccccc3)CC[C@]3(C)C(=CC[C@@H]4[C@@]5(C)Cc6cnoc6[C@@](C)(COC(=O)CCC(=O)n6cccn6)[C@@H]5CC[C@]43C)[C@@H]2C1 | 63.1 | 69.6 |  |
| CN1CCN(C(=O)CCC(=O)OC[C@]2(C)c3oncc3C[C@@]3(C)[C@H]2CC[C@]2(C)[C@@H]3CC=C3[C@@H]4CC(C)(C)CC[C@]4(C(=O)OCc4ccccc4)CC[C@]32C)CC1 | 32.5 | 79.7 |  |
| CC1(C)CC[C@]2(C(=O)OCc3ccccc3[N+](=O)[O-])CC[C@]3(C)C(=CC[C@@H]4[C@@]5(C)Cc6nccnc6[C@@](C)(CO)[C@@H]5CC[C@]43C)[C@@H]2C1 | 27.1 | 103 |  |
| CC1(C)CC[C@]2(C(=O)OCc3ccc(Br)cc3)CC[C@]3(C)C(=CC[C@@H]4[C@@]5(C)Cc6nccnc6[C@@](C)(CO)[C@@H]5CC[C@]43C)[C@@H]2C1 | 34.2 | 109 |  |
| CCOC(=O)c1noc2c1C[C@@]1(C)[C@@H](CC[C@]3(C)[C@@H]1CC=C1[C@@H]4CC(C)(C)CC[C@]4(C(=O)OCc4ccccc4)CC[C@]13C)[C@]2(C)CO | 94.7 | 102 |  |
| CC1(C)CC[C@]2(C(=O)OCc3cccc(Br)c3)CC[C@]3(C)C(=CC[C@@H]4[C@@]5(C)Cc6nccnc6[C@@](C)(CO)[C@@H]5CC[C@]43C)[C@@H]2C1 | 19.6 | 39.8 |  |
| CC1(C)CC[C@]2(C(=O)OCc3ccccc3F)CC[C@]3(C)C(=CC[C@@H]4[C@@]5(C)Cc6nccnc6[C@@](C)(CO)[C@@H]5CC[C@]43C)[C@@H]2C1 | 26.7 | 107 |  |

Reference: ChEMBL document CHEMBL5154762, “Design, synthesis, and tumor drug resistance reversal activity of novel hederagenin derivatives modified by nitrogen-containing heterocycles” (Eur J Med Chem, 2022)
